In general, solubility refers to how much of the substance goes into solution per volume.

In brackets after ≈: the same amount, converted by molar mass. Numbered stars: 1 amine (or outer) side, 2 acyl side, 3 side chain; on linkers, the order of the positions; unused ones are H or OH. Square brackets hold non-standard residues; d marks the D form. Peptide text beside a SMILES is read from it. * marks the point of attachment. Doxorubicin(3'-N) = COc1cccc2c1C(=O)c1c(O)c3c(c(O)c1C2=O)C[C@@](O)(C(=O)CO)C[C@@H]3O[C@H]1C[C@H](N*)[C@H](O)[C@H](C)O1; X6 = CN1CCN(CCCC(N[*:1])C(=O)[*:2])CC1; hTyr = N[C@@H](CCc1ccc(O)cc1)C(=O)O; X2 = O=C(C(CCc1ccncc1)N[*:1])[*:2]; hPhe = N[C@@H](CCc1ccccc1)C(=O)O; Bn = c1ccc(C*)cc1

Consider 13 molecules from ChEMBL document CHEMBL1156831, “Discovery of matrix metalloproteases selective and activated peptide-doxorubicin prodrugs as anti-tumor agents” (Bioorg Med Chem Lett, 2010).

The target in data set [1] is Neprilysin (Homo sapiens) (UniProt P08473). Kind of data set: Ratio Kcat to […] for neprilysin.
Data set [2] has as its target Matrix metalloproteinase-14 (Homo sapiens) (UniProt P50281). The data set can be described thus: Ratio Kcat to […] for MMP14.
The nature of data set [3]: Compound remaining in mouse blood after 6 hrs. It counts as ADME, tissue-based. The note with it: read-out: Stability.
Data set [4] in a line: Aqueous solubility at pH 7.4. Format: physicochemical. As to conditions: aqueous medium.
Data set [5] has as its target 72 kDa type IV collagenase (Homo sapiens) (UniProt P08253). The data set can be described thus: Ratio Kcat to Ki for MMP2.
Data set [6] deals with Matrix metalloproteinase-9 (Homo sapiens) (UniProt P14780). The data set can be described thus: Ratio Kcat to Ki for MMP9.
Matrix metalloproteinase-9 (Homo sapiens), sequence (P14780 whole entry): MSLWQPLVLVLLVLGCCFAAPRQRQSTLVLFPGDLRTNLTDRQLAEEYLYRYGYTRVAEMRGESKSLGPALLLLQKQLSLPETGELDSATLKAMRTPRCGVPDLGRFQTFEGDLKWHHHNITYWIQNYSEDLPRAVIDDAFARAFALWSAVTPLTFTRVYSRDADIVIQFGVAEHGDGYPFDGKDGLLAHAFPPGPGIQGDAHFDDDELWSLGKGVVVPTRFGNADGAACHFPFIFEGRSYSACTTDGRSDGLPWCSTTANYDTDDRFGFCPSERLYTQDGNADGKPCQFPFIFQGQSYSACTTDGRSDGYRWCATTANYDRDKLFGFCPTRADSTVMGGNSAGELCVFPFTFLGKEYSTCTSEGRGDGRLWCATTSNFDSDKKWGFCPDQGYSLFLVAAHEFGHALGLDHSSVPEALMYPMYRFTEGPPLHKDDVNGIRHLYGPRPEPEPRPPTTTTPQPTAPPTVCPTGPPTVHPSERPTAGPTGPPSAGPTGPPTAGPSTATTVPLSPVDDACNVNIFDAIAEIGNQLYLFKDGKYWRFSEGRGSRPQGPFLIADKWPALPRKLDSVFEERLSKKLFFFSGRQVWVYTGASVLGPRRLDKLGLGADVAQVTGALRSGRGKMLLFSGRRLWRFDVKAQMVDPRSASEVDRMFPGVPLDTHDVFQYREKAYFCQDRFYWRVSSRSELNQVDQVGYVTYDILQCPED

Neprilysin (Homo sapiens), sequence (P08473 whole entry): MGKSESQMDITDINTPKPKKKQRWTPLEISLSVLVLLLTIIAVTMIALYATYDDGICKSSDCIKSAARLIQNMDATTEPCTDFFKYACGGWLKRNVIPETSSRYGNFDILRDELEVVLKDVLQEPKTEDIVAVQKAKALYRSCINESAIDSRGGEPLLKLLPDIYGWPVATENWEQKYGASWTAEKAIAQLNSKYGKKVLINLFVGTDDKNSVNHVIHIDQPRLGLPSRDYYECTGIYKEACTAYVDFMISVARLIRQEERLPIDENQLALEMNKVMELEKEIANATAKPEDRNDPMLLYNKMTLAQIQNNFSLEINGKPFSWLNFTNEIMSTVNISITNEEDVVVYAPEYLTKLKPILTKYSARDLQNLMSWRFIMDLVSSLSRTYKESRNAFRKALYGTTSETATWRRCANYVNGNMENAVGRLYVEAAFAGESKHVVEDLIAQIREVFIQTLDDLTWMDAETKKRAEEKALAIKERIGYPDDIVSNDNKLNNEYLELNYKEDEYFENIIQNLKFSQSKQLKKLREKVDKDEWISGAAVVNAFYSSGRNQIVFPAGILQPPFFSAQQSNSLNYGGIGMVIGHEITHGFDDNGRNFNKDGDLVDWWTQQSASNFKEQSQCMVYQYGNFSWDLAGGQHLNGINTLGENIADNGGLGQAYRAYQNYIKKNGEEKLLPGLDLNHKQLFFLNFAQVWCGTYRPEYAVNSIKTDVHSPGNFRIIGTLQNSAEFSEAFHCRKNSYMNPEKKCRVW
72 kDa type IV collagenase (Homo sapiens), sequence (P08253 110-660 limits assumed): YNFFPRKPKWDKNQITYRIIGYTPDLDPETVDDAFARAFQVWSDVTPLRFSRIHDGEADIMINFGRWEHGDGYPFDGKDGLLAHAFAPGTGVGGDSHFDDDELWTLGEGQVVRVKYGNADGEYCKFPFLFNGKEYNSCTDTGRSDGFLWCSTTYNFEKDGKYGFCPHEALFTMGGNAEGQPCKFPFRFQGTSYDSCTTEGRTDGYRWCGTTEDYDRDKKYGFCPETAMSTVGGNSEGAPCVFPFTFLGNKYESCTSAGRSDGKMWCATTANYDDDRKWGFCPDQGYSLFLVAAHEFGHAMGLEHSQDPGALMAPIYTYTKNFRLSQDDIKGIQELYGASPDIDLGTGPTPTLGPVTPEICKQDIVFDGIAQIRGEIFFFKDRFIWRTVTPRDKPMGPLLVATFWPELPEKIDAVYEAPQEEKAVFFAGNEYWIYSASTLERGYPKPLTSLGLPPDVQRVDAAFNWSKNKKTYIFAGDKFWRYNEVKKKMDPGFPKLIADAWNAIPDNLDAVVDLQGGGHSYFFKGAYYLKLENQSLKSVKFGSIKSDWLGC

As to `COc1cccc2c1C(=O)c1c(O)c3c(c(O)c1C2=O)C[C@@](O)(C(=O)CO)C[C@@H]3O[C@H]1C[C@H](NC(=O)[C@H](CC(C)C)NC(=O)[C@H](Cc2ccc(O)cc2)NC(=O)[C@H](CSCc2ccccc2)NC(=O)CNC(=O)[C@H](CC(C)C)NC(=O)[C@@H]2CCCN2C(=O)[C@H](CCC(=O)O)NC(C)=O)[C@H](O)[C@H](C)O1` (Ac-EPLGC(Bn)YL-{Doxorubicin(3'-N)}), the Ratio in data set [1] is less than 1; in data set [2], 97; in data set [5] it was 40; in data set [6], 107. Further, in data set [3], the remaining at 6 h amounted to 90%. In data set [4], the solubility was greater than 2200 µg/mL.
As for `COc1cccc2c1C(=O)c1c(O)c3c(c(O)c1C2=O)C[C@@](O)(C(=O)CO)C[C@@H]3O[C@H]1C[C@H](NC(=O)[C@H](CC(C)C)NC(=O)[C@H](CC(C)C)NC(=O)CNC(=O)[C@H](CC(C)C)NC(C)=O)[C@H](O)[C@H](C)O1` (Ac-LGLL-{Doxorubicin(3'-N)}), the Ratio was 5 in data set [1], less than 1 in data set [2], less than 1 in data set [5] and less than 1 in data set [6].
For `COc1cccc2c1C(=O)c1c(O)c3c(c(O)c1C2=O)C[C@@](O)(C(=O)CO)C[C@@H]3O[C@H]1C[C@H](NC(=O)[C@H](CC(C)C)NC(=O)[C@H](Cc2ccc(O)cc2)NC(=O)[C@H](CC(C)C)NC(=O)CNC(=O)[C@H](CC(C)C)NC(C)=O)[C@H](O)[C@H](C)O1` (Ac-LGLYL-{Doxorubicin(3'-N)}), the Ratio in data set [1] stood at 8; in data set [2], 24; in data set [5], 6; in data set [6], 1.
Regarding `COc1cccc2c1C(=O)c1c(O)c3c(c(O)c1C2=O)C[C@@](O)(C(=O)CO)C[C@@H]3O[C@H]1C[C@H](NC(=O)[C@H](CC(C)C)NC(=O)CNC(=O)[C@H](CC(C)C)NC(=O)[C@@H]2CCCN2C(C)=O)[C@H](O)[C@H](C)O1` (Ac-PLGL-{Doxorubicin(3'-N)}), the Ratio in data set [5] and in data set [6] was less than 1 throughout.
Take `COc1cccc2c1C(=O)c1c(O)c3c(c(O)c1C2=O)C[C@@](O)(C(=O)CO)C[C@@H]3O[C@H]1C[C@H](NC(=O)[C@H](CC(C)C)NC(=O)[C@H](CC(C)C)NC(=O)CNC(=O)[C@H](CC(C)C)NC(=O)[C@@H]2CCCN2C(C)=O)[C@H](O)[C@H](C)O1` (Ac-PLGLL-{Doxorubicin(3'-N)}): the Ratio in data set [1] was 22; in data set [2], 4; in data set [5], 18; in data set [6], greater than 120.
Consider `COc1cccc2c1C(=O)c1c(O)c3c(c(O)c1C2=O)C[C@@](O)(C(=O)CO)C[C@@H]3O[C@H]1C[C@H](NC(=O)[C@H](CC(C)C)NC(=O)[C@H](C)NC(=O)[C@H](Cc2ccc(O)cc2)NC(=O)[C@H](CC(C)C)NC(=O)CNC(=O)[C@H](CC(C)C)NC(=O)[C@@H]2CCCN2C(C)=O)[C@H](O)[C@H](C)O1` (Ac-PLGLYAL-{Doxorubicin(3'-N)}), for which the Ratio in data set [1], in data set [2], in data set [5] and in data set [6] was greater than 120 in each case.
For `COc1cccc2c1C(=O)c1c(O)c3c(c(O)c1C2=O)C[C@@](O)(C(=O)CO)C[C@@H]3O[C@H]1C[C@H](NC(=O)[C@H](CC(C)C)NC(=O)[C@H](Cc2ccc(O)cc2)NC(=O)[C@H](CC(C)C)NC(=O)CNC(=O)[C@H](CC(C)C)NC(=O)[C@@H]2CCCN2C(C)=O)[C@H](O)[C@H](C)O1` (Ac-PLGLYL-{Doxorubicin(3'-N)}), the Ratio was 22 in data set [1], greater than 120 in data set [2], 88 in data set [5] and 390 in data set [6].
The matching figures for `COc1cccc2c1C(=O)c1c(O)c3c(c(O)c1C2=O)C[C@@](O)(C(=O)CO)C[C@@H]3O[C@H]1C[C@H](NC(=O)[C@H](CC(C)C)NC(=O)[C@H](Cc2ccc(O)cc2)NC(=O)[C@H](COCc2ccccc2)NC(=O)CNC(=O)[C@H](CC(C)C)NC(=O)[C@@H]2CCCN2C(C)=O)[C@H](O)[C@H](C)O1` (Ac-PLGS(Bn)YL-{Doxorubicin(3'-N)}): less than 1, 25, 7 and 34.
As to `COC[C@H](NC(=O)CNC(=O)[C@H](CC(C)C)NC(=O)[C@@H]1CCCN1C(C)=O)C(=O)N[C@@H](Cc1ccc(O)cc1)C(=O)N[C@@H](CC(C)C)C(=O)N[C@H]1C[C@H](O[C@H]2C[C@](O)(C(=O)CO)Cc3c(O)c4c(c(O)c32)C(=O)c2c(OC)cccc2C4=O)O[C@@H](C)[C@H]1O` (Ac-PLGS(Me)YL-{Doxorubicin(3'-N)}), the Ratio in data set [1] was found to be 2.1; in data set [2] it was 69; in data set [5], 24; in data set [6], 79. Also, in data set [3], the remaining at 6 h stood at 31%. The molecule further gave a solubility in data set [4] of 40 µg/mL (≈ 32.5 µM).
As for `COc1cccc2c1C(=O)c1c(O)c3c(c(O)c1C2=O)C[C@@](O)(C(=O)CO)C[C@@H]3O[C@H]1C[C@H](NC(=O)[C@H](CC(C)C)NC(=O)[C@H](Cc2ccc(O)cc2)NC(=O)C(CCc2ccncc2)NC(=O)CNC(=O)[C@H](CC(C)C)NC(=O)[C@@H]2CCCN2C(C)=O)[C@H](O)[C@H](C)O1` (stereo not given in full) (Ac-PLG[X2]YL-{Doxorubicin(3'-N)}), the Ratio was less than 1 in data set [1], 58 in data set [2], 21 in data set [5] and 43 in data set [6]. For the same molecule, the remaining at 6 h in data set [3] turned out to be 59%. The same molecule came in with a solubility in data set [4] of 380 µg/mL (≈ 294 µM).
In the case of `COc1cccc2c1C(=O)c1c(O)c3c(c(O)c1C2=O)C[C@@](O)(C(=O)CO)C[C@@H]3O[C@H]1C[C@H](NC(=O)[C@H](CC(C)C)NC(=O)[C@H](C)NC(=O)[C@H](CCc2ccccc2)NC(=O)CNC(=O)[C@H](CC(C)C)NC(=O)[C@@H]2CCCN2C(C)=O)[C@H](O)[C@H](C)O1` (Ac-PLG[hPhe]AL-{Doxorubicin(3'-N)}), the Ratio was 1 in data set [1], 19 in data set [2], 11 in data set [5] and less than 1 in data set [6].
For the molecule `COc1cccc2c1C(=O)c1c(O)c3c(c(O)c1C2=O)C[C@@](O)(C(=O)CO)C[C@@H]3O[C@H]1C[C@H](NC(=O)[C@H](CC(C)C)NC(=O)C(CCCN2CCN(C)CC2)NC(=O)[C@H](CCc2ccccc2)NC(=O)CNC(=O)[C@H](CC(C)C)NC(=O)[C@@H]2CCCN2C(C)=O)[C@H](O)[C@H](C)O1` (stereo partly drawn) (Ac-PLG[hPhe][X6]L-{Doxorubicin(3'-N)}), the Ratio was less than 1 in data set [1], greater than 120 in data set [2], 55 in data set [5] and 73 in data set [6]. Also, in data set [3], the remaining at 6 h came to 100%. In data set [4], this molecule yielded a solubility of 130 µg/mL (≈ 98.1 µM).
Take `COc1cccc2c1C(=O)c1c(O)c3c(c(O)c1C2=O)C[C@@](O)(C(=O)CO)C[C@@H]3O[C@H]1C[C@H](NC(=O)[C@H](CC(C)C)NC(=O)[C@H](CCc2ccc(O)cc2)NC(=O)[C@H](CCc2ccccc2)NC(=O)CNC(=O)[C@H](CC(C)C)NC(=O)[C@@H]2CCCN2C(C)=O)[C@H](O)[C@H](C)O1` (Ac-PLG[hPhe][hTyr]L-{Doxorubicin(3'-N)}): the Ratio in data set [1] was less than 1; in data set [2], greater than 120; in data set [5], 116; in data set [6], greater than 120. Also, the remaining at 6 h in data set [3] is 13%. In data set [4], this molecule showed a solubility of 1 µg/mL (≈ 0.767 µM).
